Each structure is given as a SMILES string.

Chain of Full length human recombinant PIKFYVE (Q9Y2I7 whole entry, the tested form may be a part): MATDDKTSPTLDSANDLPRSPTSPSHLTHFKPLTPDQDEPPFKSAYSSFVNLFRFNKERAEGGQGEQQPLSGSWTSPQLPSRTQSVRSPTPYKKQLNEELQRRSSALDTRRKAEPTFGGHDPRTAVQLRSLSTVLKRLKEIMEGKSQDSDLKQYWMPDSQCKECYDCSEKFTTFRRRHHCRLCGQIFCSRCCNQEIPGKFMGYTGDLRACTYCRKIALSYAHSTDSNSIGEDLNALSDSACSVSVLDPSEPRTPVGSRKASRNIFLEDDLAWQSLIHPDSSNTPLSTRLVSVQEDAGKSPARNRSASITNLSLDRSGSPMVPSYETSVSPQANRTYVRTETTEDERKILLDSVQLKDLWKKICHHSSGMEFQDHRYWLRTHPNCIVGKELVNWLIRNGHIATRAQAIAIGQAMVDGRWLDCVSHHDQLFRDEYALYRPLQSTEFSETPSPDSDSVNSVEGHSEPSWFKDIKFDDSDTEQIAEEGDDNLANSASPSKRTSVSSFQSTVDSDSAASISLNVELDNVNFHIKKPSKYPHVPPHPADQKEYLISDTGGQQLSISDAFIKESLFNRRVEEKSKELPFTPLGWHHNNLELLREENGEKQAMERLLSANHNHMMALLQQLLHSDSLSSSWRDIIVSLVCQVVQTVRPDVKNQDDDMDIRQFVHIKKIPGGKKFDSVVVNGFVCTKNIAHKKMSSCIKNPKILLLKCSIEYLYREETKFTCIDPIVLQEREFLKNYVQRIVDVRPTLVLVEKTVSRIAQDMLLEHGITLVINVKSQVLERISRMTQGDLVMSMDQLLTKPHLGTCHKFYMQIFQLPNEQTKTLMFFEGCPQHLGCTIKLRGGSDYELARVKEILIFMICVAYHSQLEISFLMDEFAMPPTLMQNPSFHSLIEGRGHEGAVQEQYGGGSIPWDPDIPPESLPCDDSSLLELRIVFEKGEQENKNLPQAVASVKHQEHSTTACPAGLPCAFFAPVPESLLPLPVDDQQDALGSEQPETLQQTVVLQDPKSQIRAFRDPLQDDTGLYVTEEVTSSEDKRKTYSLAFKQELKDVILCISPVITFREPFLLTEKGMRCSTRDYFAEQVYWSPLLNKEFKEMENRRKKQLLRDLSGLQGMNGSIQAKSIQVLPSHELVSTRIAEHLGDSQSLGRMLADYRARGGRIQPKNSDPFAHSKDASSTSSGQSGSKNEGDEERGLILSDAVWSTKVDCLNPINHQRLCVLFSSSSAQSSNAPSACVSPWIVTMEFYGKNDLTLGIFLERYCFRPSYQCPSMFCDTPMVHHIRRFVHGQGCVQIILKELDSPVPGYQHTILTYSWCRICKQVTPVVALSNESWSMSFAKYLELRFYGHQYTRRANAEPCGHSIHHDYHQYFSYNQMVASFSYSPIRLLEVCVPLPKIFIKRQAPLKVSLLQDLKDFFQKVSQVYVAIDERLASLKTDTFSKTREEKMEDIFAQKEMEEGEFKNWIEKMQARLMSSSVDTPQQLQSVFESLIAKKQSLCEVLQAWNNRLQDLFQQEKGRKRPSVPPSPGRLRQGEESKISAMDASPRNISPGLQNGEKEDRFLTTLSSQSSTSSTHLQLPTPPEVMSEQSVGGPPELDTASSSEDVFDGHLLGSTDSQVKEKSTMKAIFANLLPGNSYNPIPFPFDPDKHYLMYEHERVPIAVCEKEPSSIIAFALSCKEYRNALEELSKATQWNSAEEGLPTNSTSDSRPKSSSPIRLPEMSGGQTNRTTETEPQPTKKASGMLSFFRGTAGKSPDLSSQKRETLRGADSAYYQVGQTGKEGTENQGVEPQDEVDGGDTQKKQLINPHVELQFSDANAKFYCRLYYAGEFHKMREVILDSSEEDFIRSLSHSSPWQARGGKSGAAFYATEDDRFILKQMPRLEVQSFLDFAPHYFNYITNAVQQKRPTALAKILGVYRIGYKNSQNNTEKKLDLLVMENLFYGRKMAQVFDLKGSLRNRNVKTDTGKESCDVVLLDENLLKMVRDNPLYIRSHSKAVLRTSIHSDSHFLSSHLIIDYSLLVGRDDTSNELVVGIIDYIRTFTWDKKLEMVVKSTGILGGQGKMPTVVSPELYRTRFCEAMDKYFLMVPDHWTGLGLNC

The target of the experiment is Full length human recombinant PIKFYVE (Homo sapiens (Human), UniProt Q9Y2I7). Description: Inhibition of PIKfyve (microfluidic electrophoresis kinase assay). The experiment is classed as biochemical. As to conditions: 2 nM enzyme, PI3P/PS substrate, 3 h at room temperature, 12 concentrations. On the procedure:
Full length human recombinant PIKFYVE expressed in baculovirus expression system as N-terminal GST-fusion protein (265 kDa) was obtained from Carna Biosciences (Kobe, Japan). The kinase substrate was prepared by mixing and sonicating fluorescently-labeled phosphatidylinositol 3-phosphate (PI3P) with phospho-L-serine (PS) at a 1:10 ratio in 50 mM HEPES buffer pH7.5.
The kinase reactions were assembled in 384-well plates (Greiner) in a total volume of […] as follows. Kinase protein was pre-diluted in an assay buffer comprising 25 mM HEPES, pH 7.5, 1 mM DTT, 2.5 mM MgCl2, and 2.5 mM MnCl2, and 0.005% Triton X-100, and dispensed into a 384-well plate (10 μL per well). Test compounds were serially pre-diluted in DMSO and added to the protein samples by acoustic dispensing (Labcyte Echo). The concentration of DMSO was equalized to 1% in all samples. All test compounds were tested at 12 concentrations. Apilimod was used as a reference compound and was tested in identical manner in each assay plate. Control samples (0%-inhibition, in the absence of inhibitor, DMSO only) and 100%-inhibition (in the absence of enzyme) were assembled in replicates of four and were used to calculate %-inhibition in the presence of compounds. The reactions were initiated by addition of 10 μL of 2× PI3P/PS substrate supplemented with ATP. The final concentration of enzyme was 2 nM, the final concentration of ATP was 10 mM, and the final concentration of PI3P/PS substrate was 1 μM (PI3P). The kinase reactions were allowed to proceed for 3 h at room temperature. Following incubation, the reactions were quenched by addition of […] of termination buffer (100 mM HEPES, pH 7.5, 0.01% Triton X-100, 20 mM EDTA). Terminated plates were analyzed on a microfluidic electrophoresis instrument (Caliper LabChip® 3000, Caliper Life Sciences/Perkin Elmer). The change in the relative fluorescence intensity of the PI (3) P substrate and PI (3,5) P product peaks was measured. The activity in each test sample was determined as the product to sum ratio (PSR): P/(S+P), where P is the peak height of the product, and S is the peak height of the substrate. Percent inhibition (Pinh) was determined using the following equation: Pinh=(PSR0% inh−PSRcompound)/(PSR0% inh−PSR100% inh)*100 in which PSRcompound is the product/sum ratio in the presence of compound, PSR0% inh is the product/sum ratio in the absence of compound, and the PSR100% inh is the product/sum ratio in the absence of the enzyme.
Broadly, the IC50 is the point on the concentration scale where inhibition reaches its midpoint. On to `Cc1cccc(-c2ccn(-c3cc(N4CCOCC4)n4nc(C(=O)N[C@H]5CCN(C)C5)cc4n3)n2)c1` [Compound 48, N-[(3S)-1-methylpyrrolidin-3-yl]-7-morpholino-5-[3-(m-tolyl)pyrazol-1-yl]pyrazolo[1,5-a]pyrimidine-2-carboxamide], for which the IC50 was 41.3 nM.
For the compound `Cc1cccc(-c2ccn(-c3cc(N4CCOCC4)n4nc(C(=O)N[C@@H]5CCN(C)C5)cc4n3)n2)c1` [Compound 49, N-[(3R)-1-methylpyrrolidin-3-yl]-7-morpholino-5-[3-(m-tolyl)pyrazol-1-yl]pyrazolo[1,5-a]pyrimidine-2-carboxamide], the IC50 is 112 nM.
As for `Cc1cccc(-c2ccn(-c3cc(N4CCOCC4)n4nc(C(=O)N[C@H]5CCOC5)cc4n3)n2)c1` [Compound 50, 7-morpholino-5-[3-(m-tolyl)pyrazol-1-yl]-N-[(3S)-tetrahydrofuran-3-yl]pyrazolo[1,5-a]pyrimidine-2-carboxamide], the IC50 was determined as 18.4 nM.
On to `Cc1cccc(-c2ccn(-c3cc(N4CCOCC4)n4nc(C(=O)N[C@@H]5CCOC5)cc4n3)n2)c1` [Compound 51, 7-morpholino-5-[3-(m-tolyl)pyrazol-1-yl]-N-[(3R)-tetrahydrofuran-3-yl]pyrazolo[1,5-a]pyrimidine-2-carboxamide], for which the concentration for half-maximal inhibition (IC50) was determined as 64.7 nM.
Consider `Cc1cccc(-c2ccn(-c3cc(N4CCOCC4)n4nc(C(=O)N[C@@H]5CCCN(C)C5)cc4n3)n2)c1` [Compound 52, N-[(3R)-1-methyl-3-piperidyl]-7-morpholino-5-[3-(m-tolyl)pyrazol-1-yl]pyrazolo[1,5-a]pyrimidine-2-carboxamide], for which the concentration for half-maximal inhibition (IC50) is 28.4 nM.
`Cc1cccc(-c2ccn(-c3cc(N4CCOCC4)n4nc(C(=O)N[C@H]5CCCN(C)C5)cc4n3)n2)c1` [Compound 53, N-[(3S)-1-methyl-3-piperidyl]-7-morpholino-5-[3-(m-tolyl)pyrazol-1-yl]pyrazolo[1,5-a]pyrimidine-2-carboxamide]: the IC50 was 26.8 nM.
For the compound `Cc1cccc(-c2ccn(-c3cc(N4CCOCC4)n4nc(C(=O)NC5CCN(C)CC5)cc4n3)n2)c1` [Compound 54, N-(1-methyl-4-piperidyl)-7-morpholino-5-[3-(m-tolyl)pyrazol-1-yl]pyrazolo[1,5-a]pyrimidine-2-carboxamide], the IC50 is 126 nM.
Regarding `Cc1cccc(-c2cnn(-c3cc(N4CCOCC4)n4nc(C(=O)NC5CCN(C)CC5)cc4n3)c2)c1` [Compound 55, N-(1-methyl-4-piperidyl)-7-morpholino-5-[4-(m-tolyl)pyrazol-1-yl]pyrazolo[1,5-a]pyrimidine-2-carboxamide], the half-maximal inhibitory concentration (IC50) was 6420 nM.
`Cc1cccc(-c2cnn(-c3cc(N4CCOCC4)n4nc(C(=O)NC5CCOCC5)cc4n3)c2)c1` [Compound 56, 7-morpholino-5-[4-(m-tolyl)pyrazol-1-yl]-N-tetrahydropyran-4-yl-pyrazolo[1,5-a]pyrimidine-2-carboxamide]: the IC50 was 3420 nM.
The result for `Cc1cccc(-c2cnn(-c3cc(N4CCOCC4)n4nc(-c5ccncn5)cc4n3)c2)c1` [Compound 57, 4-[5-[4-(m-tolyl)pyrazol-1-yl]-2-pyrimidin-4-yl-pyrazolo[1,5-a]pyrimidin-7-yl]morpholine] reads 3750 nM.
Consider `Cc1cccc(-c2cnn(-c3cc(N4CCOCC4)n4nc(-c5cncnc5)cc4n3)c2)c1` [Compound 58, 4-[5-[4-(m-tolyl)pyrazol-1-yl]-2-pyrimidin-5-yl-pyrazolo[1,5-a]pyrimidin-7-yl]morpholine], for which the IC50 is above 20000 nM.
Regarding `Cc1cccc(-c2cnn(-c3cc(N4CCOCC4)n4nc(-c5cccnc5N)cc4n3)c2)c1` [Compound 59, 3-[7-morpholino-5-[4-(m-tolyl)pyrazol-1-yl]pyrazolo[1,5-a]pyrimidin-2-yl]pyridin-2-amine], the half-maximal inhibitory concentration (IC50) is above 20000 nM.
Turning to `Cc1cccc(-c2cnn(-c3cc(N4CCOCC4)n4nc(-c5cnc(N)nc5)cc4n3)c2)c1` [Compound 60, 5-[7-morpholino-5-[4-(m-tolyl)pyrazol-1-yl]pyrazolo[1,5-a]pyrimidin-2-yl]pyrimidin-2-amine], the IC50 was determined as 6120 nM.
As to `Cc1cccc(-c2ccn(-c3cc(N4CCOCC4)n4nc(-c5ccn(C)n5)cc4n3)n2)c1` [Compound 61, 4-[2-(1-methylpyrazol-3-yl)-5-[3-(m-tolyl)pyrazol-1-yl]pyrazolo[1,5-a]pyrimidin-7-yl]morpholine], the 50% inhibitory concentration (IC50) was 2.4 nM.
Take `Cc1cccc(-c2ccn(-c3cc(N4CCOCC4)n4nc(-c5cc[nH]n5)cc4n3)n2)c1` [Compound 62, 4-[5-[3-(m-tolyl)pyrazol-1-yl]-2-(1H-pyrazol-3-yl)pyrazolo[1,5-a]pyrimidin-7-yl]morpholine]: the IC50 came out at 15.8 nM.
Take `c1ccc(-c2ccn(-c3cc(N4CCOCC4)n4nc(-c5ncccn5)cc4n3)n2)cc1` [Compound 63, 4-[5-(3-phenylpyrazol-1-yl)-2-pyrimidin-2-yl-pyrazolo[1,5-a]pyrimidin-7-yl]morpholine]: the IC50 was found to be 693 nM.
For the compound `c1ccc(-c2ccn(-c3cc(N4CCOCC4)n4nc(-c5cccnc5)cc4n3)n2)cc1` [Compound 64, 4-[5-(3-phenylpyrazol-1-yl)-2-(3-pyridyl)pyrazolo[1,5-a]pyrimidin-7-yl]morpholine], the IC50 is 68.1 nM.
As to `Cn1ccc(-c2cc3nc(-n4ccc(-c5ccccc5)n4)cc(N4CCOCC4)n3n2)n1` [Compound 66, 4-[2-(1-methylpyrazol-3-yl)-5-(3-phenylpyrazol-1-yl)pyrazolo[1,5-a]pyrimidin-7-yl]morpholine], the IC50 turned out to be 104 nM.
In the case of `c1ccc(-c2ccn(-c3cc(N4CCOCC4)n4nc(-c5cc[nH]n5)cc4n3)n2)cc1` [Compound 67, 4-[5-(3-phenylpyrazol-1-yl)-2-(1H-pyrazol-3-yl)pyrazolo[1,5-a]pyrimidin-7-yl]morpholine], the IC50 is 261 nM.
Regarding `c1ccc(-c2ccn(-c3cc(N4CCOCC4)n4nc(-c5ccncn5)cc4n3)n2)cc1` [Compound 68, 4-[5-(3-phenylpyrazol-1-yl)-2-pyrimidin-4-yl-pyrazolo[1,5-a]pyrimidin-7-yl]morpholine], the concentration for half-maximal inhibition (IC50) stood at 1660 nM.
In the case of `c1ccc(-c2ccn(-c3cc(N4CCOCC4)n4nc(-c5cncnc5)cc4n3)n2)cc1` [Compound 69, 4-[5-(3-phenylpyrazol-1-yl)-2-pyrimidin-5-yl-pyrazolo[1,5-a]pyrimidin-7-yl]morpholine], the IC50 came to 752 nM.
Regarding `Nc1ncccc1-c1cc2nc(-n3ccc(-c4ccccc4)n3)cc(N3CCOCC3)n2n1` [Compound 70, 3-[7-morpholino-5-(3-phenylpyrazol-1-yl)pyrazolo[1,5-a]pyrimidin-2-yl]pyridin-2-amine], the half-inhibitory concentration (IC50) stood at 378 nM.
As to `Nc1ncc(-c2cc3nc(-n4ccc(-c5ccccc5)n4)cc(N4CCOCC4)n3n2)cn1` [Compound 71, 5-[7-morpholino-5-(3-phenylpyrazol-1-yl)pyrazolo[1,5-a]pyrimidin-2-yl]pyrimidin-2-amine], the IC50 came to 143 nM.
With `c1ccc(-c2ccn(-c3cc(N4CCOCC4)n4nc(-c5ccccn5)cc4n3)n2)cc1` [Compound 72, 4-[5-(3-phenylpyrazol-1-yl)-2-(2-pyridyl)pyrazolo[1,5-a]pyrimidin-7-yl]morpholine], the half-maximal inhibitory concentration (IC50) was found to be 281 nM.
The result for `CC(C)NC(=O)c1cc2nc(-n3ccc(-c4ccccc4)n3)cc(N3CCOCC3)n2n1` [Compound 73, N-isopropyl-7-morpholino-5-(3-phenylpyrazol-1-yl)pyrazolo[1,5-a]pyrimidine-2-carboxamide] reads 335 nM; that for `C[C@@H](NC(=O)c1cc2nc(-n3ccc(-c4ccccc4)n3)cc(N3CCOCC3)n2n1)C1CC1` [Compound 74, N-[(1R)-1-cyclopropylethyl]-7-morpholino-5-(3-phenylpyrazol-1-yl)pyrazolo[1,5-a]pyrimidine-2-carboxamide], 353 nM; that for `C[C@H](NC(=O)c1cc2nc(-n3ccc(-c4ccccc4)n3)cc(N3CCOCC3)n2n1)C1CC1` [Compound 75, N-[(1S)-1-cyclopropylethyl]-7-morpholino-5-(3-phenylpyrazol-1-yl)pyrazolo[1,5-a]pyrimidine-2-carboxamide], 334 nM.
`O=C(NCC1COC1)c1cc2nc(-n3ccc(-c4ccccc4)n3)cc(N3CCOCC3)n2n1` [Compound 76, 7-morpholino-N-(oxetan-3-ylmethyl)-5-(3-phenylpyrazol-1-yl)pyrazolo[1,5-a]pyrimidine-2-carboxamide]: the half-maximal inhibitory concentration (IC50) amounted to 1590 nM.

The values are drawn from patent US12486274B2, “Substituted pyrazolo-pyrimidines and uses thereof” (Verge Analytics, Inc., priority 2020, dated 2025).
